Tested on: HCT116 human colorectal cancer cells
Test: Intracellular dNTP pools of HCT116 cells after treatment with thymidylate synthase inhibitors, measured with the fluorescence-based dNTP assay
Conditions: for Intracellular dGTP concentration / Intracellular dCTP concentration / Intracellular dATP concentration / Intracellular dTTP concentration: 4 h, Mean ± SD; for Intracellular dGTP concentration: control 4.7 ± 0.8; for Intracellular dCTP concentration: control 10.5 ± 0.2; for Intracellular dATP concentration: control 13.6 ± 1.17; for Intracellular dTTP concentration: control 20.4 ± 0.77; for dGTP after treatment: depletion from 4.7; for dCTP levels after treatment: reduction from 10.5; for dTTP after treatment: vehicle-treated cells 20.4
[1] = HCT116, 2.5 μmol/L pemetrexed, 4 hours

Procedure: Reaction mixtures contained primer, probe and template at an equimolar final concentration of 0.4 mmol/L. MgCl2 was included at a final concentration of 2 mmol/L. Non-limiting dNTPs were included in the reaction mix in excess at a final concentration of 100 mmol/L (the dNTP to be assayed was excluded). AmpliTaq Gold DNA polymerase was added at 0.875 U/reaction, 2.5 μl of 10×PCR buffer 2 added and nuclease-free ddH2O added to a final reaction volume of 25 μl. For analysis of cell extracts, the volume of ddH20 was modified to accommodate the addition of 2.5 μl of cell extract. For dUTP determination from cell extracts, the volume of ddH20 was further modified to accommodate an additional 1 μl of dUTPase (10 ng/μl). Thermal profiling and fluorescence detection was performed using the ‘isothermal’ program on board an Applied Biosystems 7500 Real-Time PCR System. For analysis of dNTPs, the thermal profile consisted of a 10 min 95° C. step to ‘hot-start’ the Taq polymerase and a primer extension time of up to 30 min at 60° C. depending on the application. Raw fluorescence spectra for 6-FAM was measured using filter A at specified time intervals (typically every 5 min) to follow assay progression using Sequence Detection Software (SDS Version 1.4, Applied Biosystems) and exported and analyzed in Microsoft Excel (Microsoft, Redmond Wash.) and Prism (GraphPad Software, La Jolla Calif.). In all cases, fluorescence values for blank reactions (limiting dNTP omitted) were subtracted to give normalized fluorescence units (NFU) to account for background probe fluorescence.
The human colorectal cancer cell line HCT116 was purchased from American Type Culture Collection (Lockville, Md.). HCT116 cells were maintained in McCoy's 5A media (Invitrogen) supplemented with 10% fetal bovine serum (Lonza, Walkersville, Md.) with penicillin/streptomycin, sodium pyruvate and L-glutamine (Invitrogen, Carlsbad, Calif.). For pemetrexed analyses, cells were incubated in folate-depleted RPMI supplemented with 25 nmol/L 5-Formyltetrahydrofolate, 10% fetal bovine serum (Lonza), penicillin/streptomycin, sodium pyruvate and L-glutamine for 24 h prior to treatment. Cells were maintained in a humidified Form a incubator (Form a, Waltham, Mass.) at 37° C. with 5% CO2 and routinely screened for mycoplasma using the MycoALERT detection kit (Lonza) and verified mycoplasma negative.
The relationship between assay response and known concentrations of the analytes (dNTPs) was analyzed by a 5-point (minimum) calibration curve. Calibration curves were obtained by assaying serial dilutions of dNTP standards diluted with ultra-pure nuclease-free water to the desired concentration and evaluated using regression coefficients (R^2). Samples were assayed in triplicate, and experiments were repeated on three independent occasions as appropriate. The limit of detection (LOD) was defined as the mean value of the negative blind controls plus 3 standard deviations (SD) of the mean, i.e. the concentration with a signal to noise ratio of 3:1. The limit of quantification (LOQ) was defined as the mean value of the negative controls plus 5 SD determined from three independent assays (signal to noise ratio of 5:1). Coefficient of variation (% CV) values were calculated from the cumulative mean and SD of replicates. Inter-assay % CVs were calculated from 3 independent experiments performed on different days. The intra-assay % CV represents the mean±SD % CV obtained from assaying replicate samples within 3 identical yet independent assays performed on the same day. The accuracy was assessed by comparing the nominal dNTP concentrations with the corresponding calculated values based on the calibration curve and presented as a percentage.

O=c1[nH]cc(F)c(=O)[nH]1 [5-FU, 5-fluorouracil]
Intracellular dGTP concentration (HCT116, 5 μmol/L 5-FU): 0.88 ± 0.1 pmoles × 10^6 cells | Intracellular dCTP concentration (HCT116, 5 μmol/L 5-FU): 8.7 ± 0.24 pmoles × 10^6 cells | Intracellular dATP concentration (HCT116, 5 μmol/L 5-FU): 13.9 ± 0.33 pmoles × 10^6 cells | Intracellular dTTP concentration (HCT116, 5 μmol/L 5-FU): 1.64 ± 0.16 pmoles × 10^6 cells | dGTP after treatment (HCT116, 5 μmol/L 5-FU, 4 hours): 0.9 pmoles per 10^6 cells | dCTP levels after treatment (HCT116, 5 μmol/L 5-FU, 4 hours): 8.7 pmoles per 10^6 | dTTP after treatment (HCT116, 5 μmol/L 5-FU, 4 hours): 1.6 pmoles per 10^6 cells

O=c1[nH]c(=O)n([C@H]2C[C@H](O)[C@@H](CO)O2)cc1F [FUdR, fluorodeoxyuridine]
Intracellular dGTP concentration (HCT116, 1 μmol/L FUdR): 0.43 ± 0.11 pmoles × 10^6 cells | Intracellular dCTP concentration (HCT116, 1 μmol/L FUdR): 8 ± 0.04 pmoles × 10^6 cells | Intracellular dATP concentration (HCT116, 1 μmol/L FUdR): 14.5 ± 0.13 pmoles × 10^6 cells | Intracellular dTTP concentration (HCT116, 1 μmol/L FUdR): 4.5 ± 0.71 pmoles × 10^6 cells | Depletion of dTTP versus vehicle-treated cells (HCT116, 1 μmol/L FUdR, 4 hours): > 4 fold | dGTP after treatment (HCT116, 1 μmol/L FUdR, 4 hours): 0.43 pmoles per 10^6 cells | dCTP levels after treatment (HCT116, 1 μmol/L FUdR, 4 hours): 8 pmoles per 10^6 | dTTP after treatment (HCT116, 1 μmol/L FUdR, 4 hours): 4.5 pmoles per 10^6 cells

Nc1nc2[nH]cc(CCc3ccc(C(=O)N[C@@H](CCC(=O)O)C(=O)O)cc3)c2c(=O)[nH]1 [PTX, pemetrexed]
Intracellular dGTP concentration (HCT116, 2.5 μmol/L PTX): 1.14 ± 0.3 pmoles × 10^6 cells | Intracellular dCTP concentration (HCT116, 2.5 μmol/L PTX): 11.1 ± 2.5 pmoles × 10^6 cells | Intracellular dATP concentration (HCT116, 2.5 μmol/L PTX): 13.4 ± 1.68 pmoles × 10^6 cells | Intracellular dTTP concentration (HCT116, 2.5 μmol/L PTX): 3.93 ± 0.8 pmoles × 10^6 cells | dGTP after treatment [1]: 1.1 pmoles per 10^6 cells | dTTP after treatment [1]: 3.9 pmoles per 10^6 cells

— patent US8815509B2, “Fluorescence-based assay for the rapid detection and quantification of deoxyribonucleoside triphosphates” (University of Southern California, priority 2011, dated 2014)
